Source: US20110230493A1, “1-OXA-8-Azaspiro [4,5] Decabe-8-Carboxamide Compounds as FAAH Inhibitors” (Pfizer Inc., priority 2008, published 2011)
Marks after values point to notes of the source that are not given here.

Experiments:
[1] = target: T1, human FAAH (Homo sapiens, UniProt O00519); assay: FAAH assay, human FAAH enzyme inactivation (kinact/Ki); format: biochemical; conditions: oleamide 50 μM, 30° C.; for kinact/KI: pH 7.4, in vitro, read-out: hFAAH kinact/Ki; for hFAAH kinact/Ki: in vitro, pH 7.4
T1 construct: made in house; host or cells: E. coli
T1 sequence (O00519 1-579): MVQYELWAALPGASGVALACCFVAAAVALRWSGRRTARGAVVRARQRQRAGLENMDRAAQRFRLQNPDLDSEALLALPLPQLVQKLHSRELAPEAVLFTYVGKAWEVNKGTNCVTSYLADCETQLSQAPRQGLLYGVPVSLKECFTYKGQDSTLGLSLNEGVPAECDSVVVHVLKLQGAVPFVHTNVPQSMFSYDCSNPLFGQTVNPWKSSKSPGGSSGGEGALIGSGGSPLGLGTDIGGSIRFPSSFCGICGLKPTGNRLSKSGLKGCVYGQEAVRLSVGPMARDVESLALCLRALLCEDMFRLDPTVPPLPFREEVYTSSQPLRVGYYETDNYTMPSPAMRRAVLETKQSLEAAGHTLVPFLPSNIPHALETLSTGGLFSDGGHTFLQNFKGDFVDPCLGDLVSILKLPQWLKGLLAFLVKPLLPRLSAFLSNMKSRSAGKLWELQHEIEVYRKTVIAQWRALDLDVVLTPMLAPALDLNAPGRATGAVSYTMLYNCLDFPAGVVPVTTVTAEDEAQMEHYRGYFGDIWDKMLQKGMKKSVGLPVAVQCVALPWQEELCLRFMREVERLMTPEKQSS
Summary of the method: (§1)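 Oleamide hydrolysis by 1-4 nM purified E. coli-expressed FAAH (substrate 50 μM = Km) coupled to GDH/NADH, pH 7.4 phosphate, 7.5% DMSO and EtOH, 30° C; A340 followed 90 min. kobs from mono-exponential fits; kinact/Ki from kobs-versus-concentration slope, multiplied by two.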

[2] = target: T2, rat FAAH (Rattus norvegicus, UniProt P97612); assay: FAAH assay, rat FAAH enzyme inactivation (kinact/Ki); format: biochemical; conditions: oleamide 50 μM, 30° C.; for kinact/KI: pH 7.4, in vitro, read-out: rFAAH kinact/Ki; for rFAAH kinact/Ki: in vitro, pH 7.4
T2 construct: made in house; host or cells: E. coli
T2 sequence (P97612 1-579): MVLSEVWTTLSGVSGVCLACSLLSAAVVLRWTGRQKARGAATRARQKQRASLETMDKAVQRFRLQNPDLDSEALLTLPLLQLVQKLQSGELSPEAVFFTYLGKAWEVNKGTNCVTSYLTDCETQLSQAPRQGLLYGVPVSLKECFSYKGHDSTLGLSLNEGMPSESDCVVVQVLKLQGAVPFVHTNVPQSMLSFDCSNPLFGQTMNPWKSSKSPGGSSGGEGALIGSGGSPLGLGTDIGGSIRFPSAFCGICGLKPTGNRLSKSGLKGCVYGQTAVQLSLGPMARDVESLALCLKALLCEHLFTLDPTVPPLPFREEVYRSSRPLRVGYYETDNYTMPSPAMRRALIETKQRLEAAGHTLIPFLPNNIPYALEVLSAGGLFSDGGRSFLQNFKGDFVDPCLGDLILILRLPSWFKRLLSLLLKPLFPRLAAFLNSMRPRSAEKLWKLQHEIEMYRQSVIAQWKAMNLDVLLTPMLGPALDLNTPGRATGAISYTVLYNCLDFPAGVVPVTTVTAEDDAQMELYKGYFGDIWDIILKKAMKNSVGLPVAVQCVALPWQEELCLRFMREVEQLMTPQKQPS
Summary of the method: as §1

[3] = tested on: Male Sprague-Dawley Rats; assay: In vivo Complete Freund's Adjuvant (CFA) efficacy assay, inhibition of allodynia; parameters: species or system rat; key: (+) indicates the test compound was determined to be efficacious at 3 mpk, oral dosing; (−) indicates the test compound was determined to not be efficacious at 3 mpk, oral dosing; conditions: p < 0.05 vs vehicle group
Procedure: For additional information on the CFA efficacy assay, see Jayamanne et al., Brit. J. Pharmacol. 2006, 147, 281-288. Experiments were performed on adult Male Sprague-Dawley Rats (200 g-250 g). Inflammation was induced in the left hindpaw of the rat by an intra-plantar injection of 150 uL Complete Freund's Adjuvant (CFA) (SIGMA F5881). The CFA injection immediately induces local inflammation, paw swelling, and pain that persists for at least two weeks post-injection. Baseline paw withdrawal threshold (PWT) was measured to determine the percent inhibition of allodynia using a set of Von Frey Hairs on day 4 post injection as illustrated by the Dixon Up and Down Method (W. J. Dixon, Ann. Rev. Pharmacol. Toxicol. 1980, 20:441-462). […] Following Dose administration PWT threshold was evaluated again at four hours postdose. The Sprague-Dawley rats used in this assay were purchased from Harlan, 8520 Allison Pointe Blvd., Indianapolis, Ind., 46250, U.S.A. Sprague-Dawley rats are an outbred breed of albino rats first produced by the Sprague Dawley farms in Madison, Wis., U.S.A.
Percent Inhibition of Allodynia was determined by the formula: […]
ΔPWT measurements were averaged for each treatment group and statistical comparisons between groups were made using ANOVA and Dunnett's two-tailed test. […]

[4] = 3 mpk, oral dosing, PWT four hours postdose

Compound	kinact/KI [1] [M⁻¹ s⁻¹]	kinact/KI [2] [M⁻¹ s⁻¹]	CFA Efficacy [3, 4]	hFAAH kinact/Ki [1] [M⁻¹ s⁻¹]	rFAAH kinact/Ki [2] [M⁻¹ s⁻¹]	CFA Efficacy ([3]; 25 mpk, intraperitoneal dosing)
Cc1noc(NC(=O)N2CCC3(CC2)C[C@@H](c2ccc(OCc4ccc(F)c(F)c4)cc2)CO3)c1C [Example 52, (3S)-3-{4-[(3,4-difluorobenzyl)oxy]phenyl}-N-(3,4-dimethylisoxazol-5-yl)-1-oxa-8-azaspiro[4.5]decane-8-carboxamide]	10100	6170	(+)	–	–	–
Cn1nnnc1NC(=O)N1CCC2(CC1)C[C@H](c1cccc(-c3ccc(C(F)(F)F)cn3)c1)CO2 [Example 99, (3R)—N-(1-methyl-1H-tetrazol-5-yl)-3-{3-[5-(trifluoromethyl)pyridin-2-yl]phenyl}-1-oxa-8-azaspiro[4.5]decane-8-carboxamide]	9970	2690	(+)	–	–	–
Cn1nnnc1NC(=O)N1CCC2(CC1)CC(c1noc(-c3ccc(OC(F)(F)F)cc3)n1)CO2 (single isomer, unassigned) [Example 85, N-(1-methyl-1H-tetrazol-5-yl)-3-{5-[4-(trifluoromethoxy)phenyl]-1,2,4-oxadiazol-3-yl}-1-oxa-8-azaspiro[4.5]decane-8-carboxamide]	–	–	(+)	5980	1340	–
Cn1nnnc1NC(=O)N1CCC2(CC1)CC(c1noc(-c3ccc(C(F)(F)F)cc3)n1)CO2 (single isomer, unassigned) [Example 83, N-(1-methyl-1H-tetrazol-5-yl)-3-{5-[4-(trifluoromethyl)phenyl]-1,2,4-oxadiazol-3-yl}-1-oxa-8-azaspiro[4.5]decane-8-carboxamide]	–	–	(+)	5480	974	–
CCc1noc(NC(=O)N2CCC3(CC2)CC(c2ccc(Cl)c(Cl)c2)CO3)c1C (single isomer, unassigned) [Example 68, 3-(3,4-dichlorophenyl)-N-(3-ethyl-4-methylisoxazol-5-yl)-1-oxa-8-azaspiro[4.5]decane-8-carboxamide]	1920	3030	(+)	–	–	–
O=C(Nc1cccnn1)N1CCC2(CC1)CC(c1cccc(Oc3ccc(C(F)(F)F)cn3)c1)CO2 (racemic) [Example 1, (3RS)—N-pyridazin-3-yl-3-(3-{[5-(trifluoromethyl)pyridin-2-yl]oxy}phenyl)-1-oxa-8-azaspiro[4.5]decane-8-carboxamide]	3130	1880	–	–	–	(+)^d
Cc1noc(NC(=O)N2CCC3(CC2)CC(c2noc(-c4ccc(OC(F)(F)F)cc4)n2)CO3)c1C (single isomer, unassigned) [Example 72, N-(3,4-dimethylisoxazol-5-yl)-3-{5-[4-(trifluoromethoxy)phenyl]-1,2,4-oxadiazol-3-yl}-1-oxa-8-azaspiro[4.5]decane-8-carboxamide]	4250	1500	(+)	–	–	–
Cn1nnnc1NC(=O)N1CCC2(CC1)C[C@H](c1ccc(OCc3ccc(C(F)(F)F)cn3)cc1)CO2 [Example 95, (3R)—N-(1-methyl-1H-tetrazol-5-yl)-3-(4-{[5-(trifluoromethyl)pyridin-2-yl]methoxy}phenyl)-1-oxa-8-azaspiro[4.5]decane-8-carboxamide]	21500	30300	(+)	–	–	–
Cn1nnnc1NC(=O)N1CCC2(CC1)CC(c1cccc(Cl)c1)CO2 (single isomer, unassigned) [Example 80, 3-(3-chlorophenyl)-N-(1-methyl-1H-tetrazol-5-yl)-1-oxa-8-azaspiro[4.5]decane-8-carboxamide]	–	–	(+)	11400	5520	–
Cn1nnnc1NC(=O)N1CCC2(CC1)C[C@@H](c1ccc(OCc3cccc(F)c3)cc1)CO2 [Example 87, (3S)-3-{4-[(3-fluorobenzyl)oxy]phenyl}-N-(1-methyl-1H-tetrazol-5-yl)-1-oxa-8-azaspiro[4.5]decane-8-carboxamide]	15900	4110	(+)	–	–	–
Cc1noc(NC(=O)N2CCC3(CC2)C[C@@H](c2ccc(OCc4cccc(F)c4)cc2)CO3)c1C [Example 48, (3S)—N-(3,4-dimethylisoxazol-5-yl)-3-{4-[(3-fluorobenzyl)oxy]phenyl}-1-oxa-8-azaspiro[4.5]decane-8-carboxamide]	4470	2540	(+)	–	–	–
Cn1nnnc1NC(=O)N1CCC2(CC1)C[C@@H](c1ccc(OCc3ccc(F)c(F)c3)cc1)CO2 [Example 89, (3S)-3-{4-[(3,4-difluorobenzyl)oxy]phenyl}-N-(1-methyl-1H-tetrazol-5-yl)-1-oxa-8-azaspiro[4.5]decane-8-carboxamide]	29800	9640	(+)	–	–	–
Cc1noc(NC(=O)N2CCC3(CC2)CC(c2ccc(OCc4ccccc4Cl)c(Cl)c2)CO3)c1C (single isomer, unassigned) [Example 43, 3-{3-chloro-4-[(2-chlorobenzyl)oxy]phenyl}-N-(3,4-dimethylisoxazol-5-yl)-1-oxa-8-azaspiro[4.5]decane-8-carboxamide]	–	–	(+)	3620	5870	–
Cc1noc(NC(=O)N2CCC3(CC2)C[C@H](c2cccc(-c4ccc(F)cc4)c2)CO3)c1C [Example 59, (3R)—N-(3,4-dimethylisoxazol-5-yl)-3-(4′-fluorobiphenyl-3-yl)-1-oxa-8-azaspiro[4.5]decane-8-carboxamide]	3130	879	(+)	–	–	–
Cn1nnnc1NC(=O)N1CCC2(CC1)C[C@H](c1cccc(-c3ccc(OC(F)(F)F)cc3)c1)CO2 [Example 97, (3R)—N-(1-methyl-1H-tetrazol-5-yl)-3-[4′-(trifluoromethoxy)biphenyl-3-yl]-1-oxa-8-azaspiro[4.5]decane-8-carboxamide]	16900	1830	(+)	–	–	–
